Data: patent US20250034164A1, “NOVEL COMPOUND AND COMPOSITION FOR PREVENTING OR TREATING NEUROINFLAMMATORY BRAIN DISEASES COMPRISING SAME AS ACTIVE INGREDIENT” (KOREA INSTITUTE OF OCEAN SCIENCE & TECHNOLOGY, priority 2021, published 2025)
pIC50: −log10 of the molar value.

Legend:
[1] = system: nitric oxide (NO) produced in mouse BV-2 microglia cells stimulated with LPS; test: NO production inhibition in LPS-stimulated BV-2 microglia cells (Griess reagent); assay type: cell-based; conditions: LPS 200 ng/ml; for pIC50: mouse BV-2 microglia cells, 24 h, read-out: NO inhibitory activity (IC50 value)
Protocol: (§1) BV-2 microglia cells were cultured in a humidified 5% CO2 incubator at 37° C. using a Dulbecco's modified Eagle medium supplemented with 5% fetal bovine serum and 1% penicillin/streptomycin at 100 units/mL.
In all experiments, the number of cells was 2.5×10^5 cell/ml, the cells were first treated with each of Compounds of Examples 1 to 25 by concentration (2.5 to 200 μg/ml), and LPS was diluted in medium and used at a concentration of 200 ng/ml. A cytotoxicity test was performed using MTT assay, and the MTT assay was performed by performing NO assay and injecting 30 μl of MTT at a concentration of 0.5 mg/ml into the cells in a microplate. After reacting for 2 hours in the incubator, formazan crystals were dissolved in 100 μl of DMSO, and the absorbance was measured using a Vmax microplate reader (Tencan Co., Switzerland) with a wavelength of 540 nm. In order to quantitatively measure the production of nitric oxide (NO), mouse BV-2 microglia cells were prepared in a microplate (96 well), and added with LPS (200 ng/ml) and Compounds by concentration (2.5 to 200 μg/ml). The cells reacted in an incubator for 24 h, and 50 μl of the supernatant reacted with a Griess reagent (a mixed solution of 1% sulfanilamide, 0.1% N-(1-naphthyl)-ethylenediamine dihydrochloride, and 2.5% H3PO4), and then the absorbance was measured using a Vmax 96-well microplate spectrophotometer with a wavelength of 550 nm.
In order to analyze the anti-inflammatory efficacy of Compound of Example 1, the concentration inhibitory effect of nitric oxide (NO) produced in mouse BV-2 microglia cells stimulated with LPS (200 ng/ml), a neuroinflammatory factor, was confirmed.
The neuroinflammation inhibitory effects of Compounds of Examples 2 to 25 were confirmed.
In order to analyze the anti-inflammatory efficacy of Compound 26 of Chemical Formula 2, the concentration inhibitory effect of nitric oxide (NO) produced in mouse BV-2 microglia cells stimulated with LPS (200 ng/ml), a neuroinflammatory factor, was confirmed. Compound 26 of Chemical Formula 2 was purchased from Santa Cruz biotechnology (CAS 79127-35-8) and the experiment was performed. As a result of treating Compound of Chemical Formula 2 at […], it was confirmed that the amount of nitric oxide (NO) was reduced, as shown in FIG. 37A.

[2] = system: inducible nitric oxide synthase (iNOS); test: iNOS protein and gene expression in LPS-treated BV-2 cells (Western blot, RT-PCR); assay type: cell-based, mouse; conditions: LPS 200 ng/ml, 2 to 80 μg/ml, protein 18 hours, gene 6 hours
Protocol: as §1
(§2) After culturing for 18 hours, the proteins were identified, and the expression patterns of iNOS and COX-2 proteins were confirmed by performing Western blot using polyclonal antibodies to iNOS and COX-2. For 6 hours after culturing the BV-2 cells by setting the same conditions, the cell supernatant was removed, RNA was identified from the cells, and iNOS and COX-2 genes were analyzed by RT-PCR. As a result, as shown in FIGS. 30(c), 35(c), and 36(c), it could be confirmed that natural product Compound 1 and derivative Compounds 4 and 6 decreased the expression levels of iNOS and COX-2 proteins and genes in a concentration-dependent manner.

[3] = system: cyclooxygenase type 2 (COX-2); test: COX-2 protein and gene expression in LPS-treated BV-2 cells (Western blot, RT-PCR); assay type: cell-based, mouse; conditions: LPS 200 ng/ml, 2 to 80 μg/ml, protein 18 hours, gene 6 hours
Protocol: as §1, §2

[4] = system: TNF-α; test: TNF-α gene expression in LPS-stimulated BV-2 microglia cells (RT-PCR); assay type: cell-based, mouse; conditions: BV-2 cells, pretreated 1 hour at 2 to 80 μg/ml, LPS 200 ng/ml, 6 hours
Protocol: as §1
(§3) Then, the cells were stimulated with LPS (200 ng/ml). After 6 hours, the cell supernatant was removed, RNA was identified from the cells, and TNF-α, IL1-β, and IL-6 genes were analyzed by RT-PCR. As a result, as shown in FIGS. 30(d), 35(d), and 36(d), it could be confirmed that natural product compound 1 and derivative compounds 4 and 6 decreased the expression levels of TNF-α, IL1-β, and IL-6 genes in a concentration-dependent manner.

[5] = system: IL1-β; test: IL1-β gene expression in LPS-stimulated BV-2 microglia cells (RT-PCR); assay type: cell-based, mouse; conditions: BV-2 cells, pretreated 1 hour at 2 to 80 μg/ml, LPS 200 ng/ml, 6 hours
Protocol: as §1, §3

[6] = system: IL-6; test: IL-6 gene expression in LPS-stimulated BV-2 microglia cells (RT-PCR); assay type: cell-based, mouse; conditions: BV-2 cells, pretreated 1 hour at 2 to 80 μg/ml, LPS 200 ng/ml, 6 hours
Protocol: as §1, §3

O=C1O[C@@H]2OC(CO)=C[C@H]3[C@@H]2C=C[C@@H]13 [Compound 1, (1S,4aS,5R,7aS)-3-(hydroxymethyl)-1,4a,5,7a-tetrahydro-1,5-(epoxymethano)cyclopenta[c]pyran-8-one]
amount of nitric oxide (NO) ([1]; BV-2 cells, treated at 20 to 60 μM (FIG. 30A)): reduced
pIC50 [1]: 4.33
expression levels of iNOS proteins and genes [2]: decreased
expression levels of COX-2 proteins and genes [3]: decreased
expression levels of TNF-α gene [4]: decreased
expression levels of IL1-β gene [5]: decreased
expression levels of IL-6 gene [6]: decreased

O=CC1=C[C@H]2[C@@H]3C=C[C@H]2C(=O)O[C@@H]3O1 [Compound 6, (1S,4aS,5R,7aS)-8-oxo-1,4a,5,7a-tetrahydro-1,5-(epoxymethano)cyclopenta[c]pyran-3-carbaldehyde]
pIC50 [1]: 5.35
expression levels of iNOS proteins and genes [2]: decreased
expression levels of COX-2 proteins and genes [3]: decreased
expression levels of TNF-α gene [4]: decreased
expression levels of IL1-β gene [5]: decreased
expression levels of IL-6 gene [6]: decreased

O=C(OCC1=C[C@H]2[C@@H]3C=C[C@H]2C(=O)O[C@@H]3O1)c1ccc(Br)cc1 [Compound 4, ((1S,4aS,5R,7aS)-8-oxo-1,4a,5,7a-tetrahydro-1,5-(epoxymethano)cyclopenta[c]pyran-3-yl)methyl 4-bromobenzoate]
pIC50 [1]: 4.88
expression levels of iNOS proteins and genes [2]: decreased
expression levels of COX-2 proteins and genes [3]: decreased
expression levels of TNF-α gene [4]: decreased
expression levels of IL1-β gene [5]: decreased
expression levels of IL-6 gene [6]: decreased
